From patent publication US9212151B2, “Heterocyclic compounds useful for kinase inhibition” (Amitech Therapeutic Solutions, Inc., priority 2010, dated 2015) come the findings set out here.

The data set is described as follows: MTT cell viability assay, compounds at 5, 1 and 0.2 μM, 48 hours. The format is cell-based. Conditions: human, A549 tumor cells. How it is done:
MTT assay is used to determine cell proliferation, percent of viable cells, and cytotoxicity. MTT (3-[4,5-dimethylthiazol-2-yl]2,5-diphenyltetrazolium bromide) is a yellow dye, which can be absorbed by the living cells and be reduced to purplish blue formazan crystals by succinate tetrazolium reductase in mitochondria. Formazan formation can therefore be used to assess and determine the survival rate of cells.
Tumor cells (A549) were plated at 2500 cells/well of a 96-well plate in complete growth medium (DMEM+10% FBS, antibiotic/antimycotic, fungizone, L-glutamine, sodium pyruvate, and non-essential amino acids). The cells were allowed to grow overnight. After cell proliferation, the cells were washed and re-suspended in fresh culture medium and placed in 96 well plates.
To each of the 96 well plates containing A549 and a control, 5, 1, and 0.2 μM of the exemplary compounds 1-200 were add. The 96 well plates were incubated for 48 hours. Cell viability was measured by adding MTT (Sigma) at 5 mg/ml for 4 h to the cells and then removing the medium and resuspending each well in 50 μl DMSO to solubilize the crystals. The 96-well plates were read on a plate-scanning spectrophotometer (BioTek) at an absorbance of […]. The survival rate of cells was calculated based on the measurement of absorption at the 570 nm wavelength by enzyme immunoassay analyzer.
(In general: Tetrazolium assays rely on reduction of a dye to a coloured formazan, in cell work by metabolically active cells.)

As usually defined, the viability is a per cent measure of how many cells are alive, often set against a control. A low value points to a greater loss of cells. For `Nc1nccc(Oc2ccc(-c3nnc(Nc4cccc(C(F)(F)F)c4)[nH]3)cc2)n1` [Compound 1], the viability at 48 h, 0.2 µM was > 70%; the viability at 48 h, 1 µM is 50 to 70%; the viability at 48 h, 5 µM is 50 to 70%.

Consider `Nc1cc(Oc2ccc(-c3nnc(Nc4cccc(C(F)(F)F)c4)[nH]3)cc2)ncn1` [Compound 2], for which the viability at 48 h, 0.2 µM was > 70%; the viability at 48 h, 1 µM was > 70%; the viability at 48 h, 5 µM is > 70%.

Turning to `FC(F)(F)c1cccc(Nc2nnc(-c3ccc(Oc4ccncc4)cc3)[nH]2)c1` [Compound 3], the viability at 48 h, 0.2 µM was > 70%; the viability at 48 h, 1 µM is 50 to 70%; the viability at 48 h, 5 µM was < 50%.

Turning to `Nc1cc(Oc2ccc(-c3nnc(Nc4cccc(C(F)(F)F)c4)[nH]3)cc2)ccn1` [Compound 4], the viability at 48 h, 0.2 µM is > 70%; the viability at 48 h, 1 µM was > 70%; the viability at 48 h, 5 µM lay in the range of 50 to 70%.

Turning to `FC(F)(F)c1cccc(Nc2nnc(-c3ccc(Oc4cc(Cl)ccn4)cc3)[nH]2)c1` [Compound 5], the viability at 48 h, 0.2 µM was > 70%; the viability at 48 h, 1 µM was > 70%; the viability at 48 h, 5 µM is > 70%.

On to `FC(F)(F)c1cccc(Nc2nnc(-c3ccc(Oc4ccnc(Cl)c4)cc3)[nH]2)c1` [Compound 6], for which the viability at 48 h, 0.2 µM is > 70%; the viability at 48 h, 1 µM lay within 50 to 70%; the viability at 48 h, 5 µM is < 50%.

As for `NS(=O)(=O)c1cnccc1Oc1ccc(-c2nnc(Nc3cccc(C(F)(F)F)c3)[nH]2)cc1` [Compound 7], the viability at 48 h, 0.2 µM was > 70%; the viability at 48 h, 1 µM was > 70%; the viability at 48 h, 5 µM was > 70%.

As to `FC(F)(F)c1cccc(Nc2nnc(-c3ccc(Oc4ccncc4C(F)(F)F)cc3)[nH]2)c1` [Compound 8], the viability at 48 h, 0.2 µM was > 70%; the viability at 48 h, 1 µM is > 70%; the viability at 48 h, 5 µM lay in the range of 50 to 70%.

`CSc1nc(Oc2ccc(-c3nnc(Nc4cccc(C(F)(F)F)c4)[nH]3)cc2)c2cc[nH]c2n1` [Compound 9]: the viability at 48 h, 0.2 µM is > 70%; the viability at 48 h, 1 µM is > 70%; the viability at 48 h, 5 µM is > 70%.

On to `FC(F)(F)c1cccc(Nc2nnc(-c3ccc(Oc4ncnc5[nH]ccc45)cc3)[nH]2)c1` [Compound 10], for which the viability at 48 h, 0.2 µM is > 70%; the viability at 48 h, 1 µM is > 70%; the viability at 48 h, 5 µM fell in the range of 50 to 70%.

`COc1ccc2c(Oc3ccc(-c4nnc(Nc5cccc(C(F)(F)F)c5)[nH]4)cc3)ccnc2c1` [Compound 11]: the viability at 48 h, 0.2 µM is > 70%; the viability at 48 h, 1 µM was > 70%; the viability at 48 h, 5 µM is 50 to 70%.

For the compound `FC(F)(F)c1cccc(Nc2nnc(-c3ccc(Oc4ccnc5ccccc45)cc3)[nH]2)c1` [Compound 12], the viability at 48 h, 0.2 µM is > 70%; the viability at 48 h, 1 µM was > 70%; the viability at 48 h, 5 µM lay within 50 to 70%.

For `Nc1cc(Oc2cccc(-c3nnc(Nc4cccc(C(F)(F)F)c4)[nH]3)c2)nc(N)n1` [Compound 13], the viability at 48 h, 0.2 µM was > 70%; the viability at 48 h, 1 µM is > 70%; the viability at 48 h, 5 µM was in the range of 50 to 70%.

For the compound `CSc1nc(N)cc(Oc2cccc(-c3nnc(Nc4cccc(C(F)(F)F)c4)[nH]3)c2)n1` [Compound 14], the viability at 48 h, 0.2 µM is 50 to 70%; the viability at 48 h, 1 µM was in the range of 50 to 70%; the viability at 48 h, 5 µM fell in the range of 50 to 70%.

For the compound `Nc1nccc(Oc2cccc(-c3nnc(Nc4cccc(C(F)(F)F)c4)[nH]3)c2)n1` [Compound 15], the viability at 48 h, 0.2 µM was > 70%; the viability at 48 h, 1 µM is > 70%; the viability at 48 h, 5 µM is > 70%.

Regarding `Nc1cc(Oc2cccc(-c3nnc(Nc4cccc(C(F)(F)F)c4)[nH]3)c2)ncn1` [Compound 16], the viability at 48 h, 0.2 µM was > 70%; the viability at 48 h, 1 µM was > 70%; the viability at 48 h, 5 µM was > 70%.

On to `FC(F)(F)c1cccc(Nc2nnc(-c3cccc(Oc4ccncc4)c3)[nH]2)c1` [Compound 17], for which the viability at 48 h, 0.2 µM is > 70%; the viability at 48 h, 1 µM lay in the range of 50 to 70%; the viability at 48 h, 5 µM was 50 to 70%.

Regarding `Nc1cc(Oc2cccc(-c3nnc(Nc4cccc(C(F)(F)F)c4)[nH]3)c2)ccn1` [Compound 18], the viability at 48 h, 0.2 µM is 50 to 70%; the viability at 48 h, 1 µM was < 50%; the viability at 48 h, 5 µM was < 50%.

With `NS(=O)(=O)c1cnccc1Oc1cccc(-c2nnc(Nc3cccc(C(F)(F)F)c3)[nH]2)c1` [Compound 19], the viability at 48 h, 0.2 µM is > 70%; the viability at 48 h, 1 µM is > 70%; the viability at 48 h, 5 µM was > 70%.

With `FC(F)(F)c1cccc(Nc2nnc(-c3cccc(Oc4ccncc4C(F)(F)F)c3)[nH]2)c1` [Compound 20], the viability at 48 h, 0.2 µM is > 70%; the viability at 48 h, 1 µM was > 70%; the viability at 48 h, 5 µM was in the range of 50 to 70%.

`FC(F)(F)c1cccc(Nc2nnc(-c3cccc(Oc4ncnc5[nH]ccc45)c3)[nH]2)c1` [Compound 21]: the viability at 48 h, 0.2 µM is > 70%; the viability at 48 h, 1 µM is > 70%; the viability at 48 h, 5 µM was > 70%.

As for `COc1ccc2c(Oc3cccc(-c4nnc(Nc5cccc(C(F)(F)F)c5)[nH]4)c3)ccnc2c1` [Compound 22], the viability at 48 h, 0.2 µM is > 70%; the viability at 48 h, 1 µM was > 70%; the viability at 48 h, 5 µM was > 70%.

As to `FC(F)(F)c1cccc(Nc2nnc(-c3cccc(Oc4ccnc5ccccc45)c3)[nH]2)c1` [Compound 23], the viability at 48 h, 0.2 µM is > 70%; the viability at 48 h, 1 µM is > 70%; the viability at 48 h, 5 µM was > 70%.

Consider `Nc1cc(Oc2ccc(-c3nnc(Nc4cccc(C(F)(F)F)c4)o3)cc2)nc(N)n1` [Compound 24], for which the viability at 48 h, 0.2 µM is > 70%; the viability at 48 h, 1 µM is > 70%; the viability at 48 h, 5 µM is > 70%.

Regarding `CSc1nc(N)cc(Oc2ccc(-c3nnc(Nc4cccc(C(F)(F)F)c4)o3)cc2)n1` [Compound 25], the viability at 48 h, 0.2 µM is < 50%; the viability at 48 h, 1 µM is < 50%; the viability at 48 h, 5 µM is < 50%.

Take `FC(F)(F)c1cccc(Nc2nnc(-c3ccc(Oc4nccc(Cl)n4)cc3)o2)c1` [Compound 26]: the viability at 48 h, 0.2 µM is > 70%; the viability at 48 h, 1 µM was > 70%; the viability at 48 h, 5 µM is > 70%.

Regarding `Nc1nccc(Oc2ccc(-c3nnc(Nc4cccc(C(F)(F)F)c4)o3)cc2)n1` [Compound 27], the viability at 48 h, 0.2 µM was > 70%; the viability at 48 h, 1 µM is > 70%; the viability at 48 h, 5 µM was 50 to 70%.

Regarding `Nc1cc(Oc2ccc(-c3nnc(Nc4cccc(C(F)(F)F)c4)o3)cc2)ncn1` [Compound 28], the viability at 48 h, 0.2 µM was > 70%; the viability at 48 h, 1 µM was > 70%; the viability at 48 h, 5 µM is > 70%.

As to `FC(F)(F)c1cccc(Nc2nnc(-c3ccc(Oc4ccncc4)cc3)o2)c1` [Compound 29], the viability at 48 h, 0.2 µM is > 70%; the viability at 48 h, 1 µM is > 70%; the viability at 48 h, 5 µM is 50 to 70%.

As to `FC(F)(F)c1cccc(Nc2nnc(-c3ccc(Oc4ccnc(Cl)c4)cc3)o2)c1` [Compound 30], the viability at 48 h, 0.2 µM was > 70%; the viability at 48 h, 1 µM was > 70%; the viability at 48 h, 5 µM was 50 to 70%.
